From patent publication US8207142B2, “Inhibitor of DNA methylation” (priority 2001, dated 2012)

Columns and labels:
p16 exon 2 = experiment: Ms-SNuPE quantitation of DNA methylation in T24 cells, p16 exon 2; assay type: cell-based, human; details: for p16 Exon 2 Methylation (%): control 96
Description: The average methylation at defined CpG sites was quantitated using a Ms-SNuPE assay, as described by Gonzalgo and Jones (Nucleic Acids Res. 25:2529-2531, 1997) and U.S. Pat. No. 6,251,594. Briefly, genomic DNA (˜4 μg) was digested overnight with 4 units of EcoRI (Boehringer Mannheim) (p16 promoter/exon 1 and p16 exon 2; FIG. 9A) or with 4 units of RsaI (Boehringer Mannheim) (P3; FIG. 9B) to cut outside the region of interest.
After standard treatment with sodium bisulfite, a PCR product of the region was generated as template for top-strand methylation analysis. The sequences of the primers used for bisulfite-treated DNA amplification were as follows: […]
p16 exon 2: 94° C. for 3 minutes, 94° C. for 1 minute, 62° C. for 45 seconds, and 72° C. for 45 seconds for 40 cycles, with a final extension step at 72° C. for 10 minutes.
Duplicates of 4 μl of template were then added to 6 μl of mixture consisting of 1× PCR buffer, 1 μM final concentration primers, 1 μCi of [^32P]dCTP or dTTP, and 1 unit 1:1 Taq/TaqStart antibody (Clontech, Palo Alto, Calif.). Single nucleotide extension involved incubation at 95° C. for 1 minute, then 50° C. for 2 minutes, and finally 72° C. for 1 minute (p16 promoter/exon1 and P16 exon 2) and 95° C. for 1 minute, then 46° C. for 30 seconds, and finally 72° C. for 20 seconds (P3). The sequences for SNuPE primers were as follows: […]
After briefly spinning down the tubes, 4 μl of stop solution were added to the 10-μl reaction volume, and the samples were boiled for 5 minutes at 95° C. before loading 1.5 μl onto a 15% denaturing polyacrylamide gel (7 M urea). The gel was run at 90 W for 1.5 hours and then dried at 80° C. for 40 minutes. The gel was exposed to a phosphorimaging cassette for quantitation of the ratio of [^32P]dCTP versus [^32P]dTTP incorporation, and the quantitation of the percent methylation was averaged from three separate CpG sites. The gel was then exposed to BioMax MR film (Kodak) to record experimental results.

[1] = system: p16 gene expression in T24 cells; experiment: RT-PCR analysis of p16 expression in T24 cells; assay type: cell-based, human
Description: The T24 cell line was obtained from the American Type Culture Collection (Rockville, Md.) and cultured in DMEM supplemented with 10% heat-inactivated fetal calf serum and 100 U/ml penicillin-streptomycin. Cultures were grown in a humidified incubator at 37° C. in an atmosphere of 5% CO2 in air.
Cells were plated (3×10^5 cells/100-mm dish) and treated 24 hours later with the indicated concentrations of compounds. The medium was either changed 24 hours or 48 hours after drug treatment.
DNA and RNA were isolated three days after treatment using the NucleoBond RNA/DNA Midi Kit (Clontech Laboratories, Inc., Palo Alto, Calif.).
Total RNA (˜10 μg) was reverse-transcribed using the following reagents: 100 units RNAsin (Promega Corp., Madison, Wis.), 0.1 M DTT (Life Technologies, Inc.), 1000 units of MMLV-RT (Life Technologies, Inc.), 1 mM deoxynucleotide triphosphates (Boehringer Mannheim, Germany), 75 μg/ml BSA, 1× MMLV-RT buffer (Life Technologies, Inc.), and 0.025 ODU Random Hexamers (Amersham-Pharmacia Biotech, Piscataway, N.J.). The reaction mixture was incubated for 10 minutes at 25° C., 45 minutes at 42° C., 3 minutes at 90° C., and chilled for 5 minutes at 4° C., during which time 1.25 μl of MMLV-RT (200 U/μl) were added and the sample then incubated for 45 minutes at 42° C., 10 minutes at 75° C., and stored at −20° C.
cDNA was amplified with primers specific for either p16 or GAPDH. Briefly, PCR reactions were performed in 25-μl volumes at 94° C. for 3 minutes, 28 cycles at 94° C. for 1 minute, 56° C. for 30 seconds, 72° C. for 40 seconds, and a final extension step at 72° C. for 5 min (p16 amplification), and 94° C. for 1 minute, 19 cycles at 94° C. for 1 minute, 58° C. for 30 seconds, 72° C. for 45 seconds, and a final extension step at 72° C. for 2 minutes (GAPDH amplification).
PCR amplifications were performed with cDNA template concentration equivalent to 100 ng of RNA in 10% DMSO. All reactions were analyzed in the linear range of amplification. PCR products were resolved on 2% agarose gels and subsequently transferred to a nylon membrane (Zetaprobe; Bio-Rad, Richmond, Calif.) under alkaline conditions. All blots were hybridized with a γ-^32P-labeled internal oligonucleotide probe, using protocols previously described (Xiong and Laird, Nuc. Acids Res. 25:2532-2534, 1997).
Since 5-Aza-CdR has been shown previously to induce p16 expression in a dose-dependent manner (Bender et al., Cancer Res. 58:95-101, 1998), the two ribonucleoside analogs 5-Aza-CR and Zeb were examined to determine their abilities to induce p16 expression (FIG. 8). Because Zeb is stable in aqueous solution, the effect of prolonging Zeb treatment on p16 expression was tested by treating these cells with different concentrations of Zeb for either 24 hours or 48 hours. RT-PCR was then performed to determine whether p16 gene was induced by drug treatment.

N. crassa = assay type: cell-based; details: Neurospora crassa, 400 nmoles
Description: Strains with mutations in dim-2 lack all detectable methyltransferase activity. A dim-2 strain (N613) and a wild-type control (N242) were challenged with a high concentration of Zebularine. The concentration of Zebularine is indicated above the plates and was applied to the paper disc as in FIG. 5; no hygromycin was applied to these plates.
Plate tests were performed with solidified medium essentially as previously described (Selker, Proc. Natl. Acad. Sci. USA 95;9430-9435, 1998). In brief, approximately 2,000 N. crassa conidia of the indicated were plated on each plate. Drugs were administered from a 4-mm diameter Whatman™ no. 1 paper disk placed in the middle of each plate shortly after plating.
Strains with mutations in dim-2 lack all detectable methyltransferase activity (Kouzminova and Selker, “Dim-2 encodes a DNA-methyltransferase responsible for all known cytosine methylation in Neurospora,” EMBO J. Aug. 1, 2001). In order to examine whether Zebularine toxicity is mediated by its methyltransferase-inhibitory activity, dim-2 strain (N613) and a wild-type control (N242) were challenged with a high concentration (400 nmoles) of Zebularine. No hygromycin was applied to these plates.

O=c1ncccn1[C@@H]1O[C@H](CO)[C@@H](O)[C@H]1O [Zebularine, 1-β-ribofuranosyl-1,2-dihydropyrimidin-2-one]
Relative p16 Exon 2 De-methylation (%) (p16 exon 2; 300 μM, 24 hrs): 7 +/− 1%
p16 Exon 2 Methylation (%) (p16 exon 2; 300 μM, 24 hrs): 89 +/− 1%
Relative p16 Exon 2 De-methylation (%) (p16 exon 2; 300 μM, 48 hrs): 16 +/− 2%
p16 Exon 2 Methylation (%) (p16 exon 2; 300 μM, 48 hrs): 81 +/− 2%
Relative p16 Exon 2 De-methylation (%) (p16 exon 2; 500 μM, 24 hrs): 9 +/− 1%
p16 Exon 2 Methylation (%) (p16 exon 2; 500 μM, 24 hrs): 87 +/− 1%
Relative p16 Exon 2 De-methylation (%) (p16 exon 2; 500 μM, 48 hrs): 18 +/− 2%
p16 Exon 2 Methylation (%) (p16 exon 2; 500 μM, 48 hrs): 79 +/− 2%
Relative p16 Exon 2 De-methylation (%) (p16 exon 2; 1000 μM, 24 hrs): 20 +/− 2%
p16 Exon 2 Methylation (%) (p16 exon 2; 1000 μM, 24 hrs): 77 +/− 2%
Relative p16 Exon 2 De-methylation (%) (p16 exon 2; 1000 μM, 48 hrs): 24 +/− 1%
p16 Exon 2 Methylation (%) (p16 exon 2; 1000 μM, 48 hrs): 73 +/− 1%
p16 expression (RT-PCR) ([1]; 300 μM for 24 hours): insufficient to induce p16 expression
p16 expression (RT-PCR) ([1]; 300 μM for 48 hours): p16 expression was induced
p16 expression (RT-PCR) ([1]; 500 μM for 24 hours): p16 expression was induced
region of conidia toxicity around the filter disk, dim-2 vs wild type (N. crassa): roughly equivalent in both dim-2 and wildtype strains

Nc1ncn([C@@H]2O[C@H](CO)[C@@H](O)[C@H]2O)c(=O)n1 [5-Aza-CR, 5-azacytidine, reference compound]
Relative p16 Exon 2 De-methylation (%) (p16 exon 2; 3 μM, 24 hrs): 8 +/− 2%
p16 Exon 2 Methylation (%) (p16 exon 2; 3 μM, 24 hrs): 88 +/− 2%
Relative p16 Exon 2 De-methylation (%) (p16 exon 2; 10 μM, 24 hrs): 15 +/− 1%
p16 Exon 2 Methylation (%) (p16 exon 2; 10 μM, 24 hrs): 82 +/− 1%
Relative p16 Exon 2 De-methylation (%) (p16 exon 2; 30 μM, 24 hrs): 25%
p16 Exon 2 Methylation (%) (p16 exon 2; 30 μM, 24 hrs): 72 +/− 2%
Relative p16 Exon 2 De-methylation (%) (p16 exon 2; 100 μM, 24 hrs): 29%
p16 Exon 2 Methylation (%) (p16 exon 2; 100 μM, 24 hrs): 68 +/− 3%
p16 expression (RT-PCR) ([1]; 3 μM): no expression
p16 expression (RT-PCR) ([1]; 100 μM): significant expression
highest p16 expression level relative to that with 3 μM 5-Aza-CdR ([1]; 100 μM 5-Aza-CR vs 3 μM 5-Aza-CdR): one-fifth
